Data as given in PubChem BioAssay AID1918946 (Molecular Pharmacology Branch, DTP, NCI, 2023).

System: 885512-296-R-J2-PDC complex spheroid viability
Assay: Anticancer human tumor 885512-296-R-J2-PDC patient-derived breast carcinoma cell line growth inhibition
Conditions: for IC50: curve of first compound; for viability, T/C: stronger effect = lower value
From the text: Multicellular complex tumor spheroid response to LSD1 Inhibitor Iadademstat in combination with a variety of drugs and investigational agents in selected tumor cell lines
The current study was undertaken to assess response to LSD1 inhibitors in combination with standard-of-care drugs and investigational agents in solid tumor complex spheroid models as well as in the K-562 leukemia. Complex spheroids include a stromal component modeled by human endothelial cells (HUVEC) and fibroblasts modeled by human mesenchymal stem cells (MSCs). The concentration ranges selected for each drug and investigational agent were based upon clinically achievable concentrations if the clinical Cmax of the agent was known.
Compounds. The drugs and investigational agents used in this study are listed on Table 1. All of the agents used, including staurosporine (NSC755774) and gemcitabine (NSC613327), were obtained from the Developmental Therapeutics Program, NCI. FDA-approved anticancer drugs are available from the NCI at http://dtp.nci.nih.gov/branches/dscb/oncology_drugset_explanation.html. Drugs and investigational agents were >95% pure by proton nuclear magnetic resonance (NMR) and liquid chromatography/mass spectrometry (LC/MS). Stock solutions were prepared at 400x in DMSO, stored at -70 degrees C, and diluted in fresh medium prior to their use. The final concentration of DMSO in cell culture wells never exceeded 0.25% (v/v). The FDA-approved anticancer drug set is available from the Developmental Therapeutics Program at https://dtp.cancer.gov/organization/dscb/obtaining/available_plates.htm. All drugs and investigational agents were tested over a range starting from a high concentration at or near the clinical Cmax and decreasing in half-log increments. If the clinical Cmax for an agent had not been determined, the highest concentration tested was 10 microM.
Cell Lines. The patient-derived cancer cell (PDC) lines: 292921-168-R-J2-PDC, K24384-001-R-PDC, and 521955-158-R2-J5-PDC pancreatic carcinomas, 556581-035-R-J1 ovarian carcinoma, 324938-238-R-J1-PDC, 855422-203-R-J1-PDC and 883617-216-R-J1-PDC urothelial bladder carcinomas, 743489-274-T-PDC renal cell carcinoma, 138582-R-J1 Merkel cell tumor, K60290-347-R-J1 and K57222-313-R-J1-PDC glioblastomas, 653999-131-R-J2-PDC, LG0703-F948-PDC, and 349418-098-R-PDC non-small cell lung carcinomas, 885512-296-R-J2-PDC, 171881-019-R-J1-PDC breast carcinomas and 186277-243-T-J2-PDC and 233499-124-R-J2-PDC colon carcinomas were obtained from the NCI Patient-Derived Models Repository (PDMR, https://pdmr.cancer.gov). The established cell lines NCI/ADR-RES (RRID:CVCL_14520 and OVCAR-5 (RRID:CVCL_1628) ovarian carcinomas, 786-O (RRID:CVCL_1051) and A498 (RRID:CVCL_A498) renal cell carcinoma, NCI-H211 (ATCC, cat. CRL-5824; RRID:CVCL_1529), NCI-H196 (ATCC, cat. CRL-5823, RRID:CVCL_1509), SW 1271 (ATCC, cat. CRL-2177, RRID:CVCL_1716) and NCI-H1876 (ATCC, cat. CRL-5902, RRID:CVCL_1503) small cell lung carcinomas, MDA-MB-231 (RRID:CVCL_0062) and MDA-MB-468 (RRID:CVCL_0419)breast carcinomas (10-12). Pooled donor human umbilical vein endothelial cells (HUVEC, Lonza, cat. CC-2519) and human mesenchymal stem cells (hMSC, Lonza, cat. PT-2501) were purchased from Lonza (Walkersville, MD).
Cell Culture. All cells were maintained in an incubator at 37 degrees C and 5% CO2 with 95% humidity. The PDC lines were cultured according to standard operating procedures established by the NCI PDMR (https://pdmr.cancer.gov). Briefly all PDCs were thawed and cultured in Matrigel-coated flasks prepared with a working solution of 1X Ham's F-12 nutrient mix, without supplementation (Invitrogen, Waltham, MA, cat. 11765054), 100 U/mL penicillin-streptomycin (Invitrogen, cat. 15140122), and 2.5% Matrigel (Corning Inc., Corning, NY, cat. 354248) for the first three passages. […]
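Also: spheroids exposed to agents for 7 days before viability read.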

CC[C@@]1(O)C(=O)OCc2c1cc1n(c2=O)Cc2cc3c(CN(C)C)c(O)ccc3nc2-1 + NC1CC1c1ccc(-c2cccc(O)c2)cc1
IC50 (second compound 0.1 µM): 0.00093 µM
IC50 (second compound 0.316 µM): 0.00106 µM
IC50 (second compound 1 µM): 0.000805 µM
IC50 (second compound 3.16 µM): 0.000791 µM
IC50 (second compound 10 µM): 0.000592 µM
viability, T/C (second compound 0.1 µM, first compound 0.000316 µM): 92.2%
viability, T/C (second compound 0.1 µM, first compound 0.001 µM): 47.2%
viability, T/C (second compound 0.1 µM, first compound 0.00316 µM): 4.42%
viability, T/C (second compound 0.1 µM, first compound 0.01 µM): 3.26%
viability, T/C (second compound 0.1 µM, first compound 0.0316 µM): 2.54%
viability, T/C (second compound 0.1 µM, first compound 0.1 µM): 1.68%
viability, T/C (second compound 0.316 µM, first compound 0.000316 µM): 97.2%
viability, T/C (second compound 0.316 µM, first compound 0.001 µM): 52.5%
viability, T/C (second compound 0.316 µM, first compound 0.00316 µM): 4.34%
viability, T/C (second compound 0.316 µM, first compound 0.01 µM): 2.93%
viability, T/C (second compound 0.316 µM, first compound 0.0316 µM): 1.9%
viability, T/C (second compound 0.316 µM, first compound 0.1 µM): 1.67%
viability, T/C (second compound 1 µM, first compound 0.000316 µM): 92.2%
viability, T/C (second compound 1 µM, first compound 0.001 µM): 40.2%
viability, T/C (second compound 1 µM, first compound 0.00316 µM): 5.01%
viability, T/C (second compound 1 µM, first compound 0.01 µM): 3.22%
viability, T/C (second compound 1 µM, first compound 0.0316 µM): 2.56%
viability, T/C (second compound 1 µM, first compound 0.1 µM): 1.7%
viability, T/C (second compound 3.16 µM, first compound 0.000316 µM): 91.8%
viability, T/C (second compound 3.16 µM, first compound 0.001 µM): 39.3%
viability, T/C (second compound 3.16 µM, first compound 0.00316 µM): 4.57%
viability, T/C (second compound 3.16 µM, first compound 0.01 µM): 2.89%
viability, T/C (second compound 3.16 µM, first compound 0.0316 µM): 1.84%
viability, T/C (second compound 3.16 µM, first compound 0.1 µM): 1.56%
viability, T/C (second compound 10 µM, first compound 0.000316 µM): 72.7%
viability, T/C (second compound 10 µM, first compound 0.001 µM): 31.1%
viability, T/C (second compound 10 µM, first compound 0.00316 µM): 3.84%
viability, T/C (second compound 10 µM, first compound 0.01 µM): 3.11%
viability, T/C (second compound 10 µM, first compound 0.0316 µM): 2.42%
viability, T/C (second compound 10 µM, first compound 0.1 µM): 1.6%

COc1cc(C2c3cc4c(cc3C(OC3OC5COC(C)OC5C(O)C3O)C3COC(=O)C23)OCO4)cc(OC)c1O (stereo not given) + NC1CC1c1ccc(-c2cccc(O)c2)cc1
IC50 (second compound 0.1 µM): 0.0517 µM
IC50 (second compound 0.316 µM): 0.0484 µM
IC50 (second compound 1 µM): 0.0467 µM
IC50 (second compound 3.16 µM): 0.0358 µM
IC50 (second compound 10 µM): 0.019 µM
viability, T/C (second compound 0.1 µM, first compound 0.00949 µM): 115%
viability, T/C (second compound 0.1 µM, first compound 0.03 µM): 78.2%
viability, T/C (second compound 0.1 µM, first compound 0.0949 µM): 18.4%
viability, T/C (second compound 0.1 µM, first compound 0.3 µM): 5.27%
viability, T/C (second compound 0.1 µM, first compound 0.949 µM): 3.81%
viability, T/C (second compound 0.1 µM, first compound 3 µM): 3.41%
viability, T/C (second compound 0.316 µM, first compound 0.00949 µM): 111%
viability, T/C (second compound 0.316 µM, first compound 0.03 µM): 73.5%
viability, T/C (second compound 0.316 µM, first compound 0.0949 µM): 17%
viability, T/C (second compound 0.316 µM, first compound 0.3 µM): 4.71%
viability, T/C (second compound 0.316 µM, first compound 0.949 µM): 3.36%
viability, T/C (second compound 0.316 µM, first compound 3 µM): 2.8%
viability, T/C (second compound 1 µM, first compound 0.00949 µM): 113%
viability, T/C (second compound 1 µM, first compound 0.03 µM): 71%
viability, T/C (second compound 1 µM, first compound 0.0949 µM): 16.5%
viability, T/C (second compound 1 µM, first compound 0.3 µM): 5.06%
viability, T/C (second compound 1 µM, first compound 0.949 µM): 4%
viability, T/C (second compound 1 µM, first compound 3 µM): 3.54%
viability, T/C (second compound 3.16 µM, first compound 0.00949 µM): 100%
viability, T/C (second compound 3.16 µM, first compound 0.03 µM): 56%
viability, T/C (second compound 3.16 µM, first compound 0.0949 µM): 17.2%
viability, T/C (second compound 3.16 µM, first compound 0.3 µM): 3.77%
viability, T/C (second compound 3.16 µM, first compound 0.949 µM): 3.77%
viability, T/C (second compound 3.16 µM, first compound 3 µM): 2.6%
viability, T/C (second compound 10 µM, first compound 0.00949 µM): 68.4%
viability, T/C (second compound 10 µM, first compound 0.03 µM): 37.9%
viability, T/C (second compound 10 µM, first compound 0.0949 µM): 9.86%
viability, T/C (second compound 10 µM, first compound 0.3 µM): 3.55%
viability, T/C (second compound 10 µM, first compound 0.949 µM): 3.7%
viability, T/C (second compound 10 µM, first compound 3 µM): 3.37%
